Assay [1] deals with C. albicans (CA-1, Strain SLU-1). As to the kind of experiment: Radial diffusion assay. The class given is cell-based, Candida albicans. Conditions: pmoles of peptide added to well to achieve a 30 mm^2 zone, PROBIT analysis, crude or purified (P′) peptide. In outline: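 Yeast at 1×10^6 CFU/mL in agarose underlayer (3% Sabouraud, 10 mM sodium phosphate pH 7.4); 2-fold peptide dilutions in D-PBS from ~1 mg/mL loaded into wells, 3 h at 37° C, then nutrient overlayer overnight. Value: pmol/well giving 30 mm^2 net clear zone, by PROBIT regression.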

For assay [2], the system named is Candida albicans SLU-1. As to the kind of experiment: Survival of cyclosporin A-immunosuppressed mice systemically infected with Candida albicans. The class given is in vivo, mouse. The following applies: cyclosporin A 10 mg/kg i.p.; 2×10^5 Candida cells; peptide 10 mg/kg, 6 doses; FIG. 7. Here is the method: Studies were also performed to determine the effectiveness of representative anti-fungal peptides in cyclosporin A-immunosuppressed mice systemically infected with Candida albicans SLU-1. Groups (15 animals/group) of 9 week-old male DBA/2J mice were immunosuppressed by pretreatment with 10 mg/kg (Day-1) of cyclosporin A administered by intraperitoneal injection. One day later (Day 0), the mice were inoculated with 2×10^5 Candida cells by intravenous injection in the tail vein. Immediately after fungal challenge, the mice were treated with a 0.1 mL volume of 10 mg/kg XMP.284, 10 mg/kg XMP.127, or PBS as a control. Cyclosporin A injections were repeated at Day 1. Day 3. Day 7, and Day 9. XMP.284, XMP.127 or PBS injections were repeated at Day 2, Day 4, Day 6, Day 8 and Day 10. […]. […] However.

Assay [3] relates to Candida albicans SLU-1. Nature of the assay: Radial diffusion assay (Example 3), wild type strain. Conditions: FIG. 2A. The class given is cell-based. Here is the method:
For the radial diffusion assays, Candida albicans SLU-1 were grown as described above and SLU-2G were grown overnight in Sabouraud dextrose broth supplemented with 10 μg/mL amphotericin B and 5 μg/mL ceftriaxone at 37° C. Cultures were diluted 1:25 into fresh, unsupplemented broth and allowed to grow for 5 hours at 37° C. Cells were pelleted at 1,500×g for 5 minutes at 4° C. Supernatant was decanted and replaced with 5 mL of 10 mM phosphate buffer, pH 7.4. After centrifugation the cell pellets were resuspended with 5 mL phosphate buffer for an OD570 determination. One OD570 for SLU-1 cells was 3×10^7 CFU/mL and for SLU-2G cells was 5×10^6 CFU/mL.
Cells were added to 10 mL of molten, cooled (˜45° C.) underlayer agarose to a concentration of 1×10^6/mL and the suspension was poured into a level square petri plate with gentle rocking to allow even distribution and solidification to a uniform thickness of about 1 mm. Wells were cut into the hardened agarose with a sterilize, 3 mm diameter punch with vacuum.
Peptides were two-fold serially diluted with DPBS from a starting concentration of approximately 1 mg/mL. Amphotericin B and nystatin were similarly diluted starting at 100 and 225 μg/mL, respectively. Five μL were added per well and allowed to diffuse at 37° C. for 1.5-2.0 hours. Then 10 mL of molten overlayer agarose were added and the plates were incubated inverted at 37° C. overnight. Plates were stained with a dilute Coomassie solution, inhibition zones were measured with calipers and net areas were calculated, then converted to pmol values by PROBIT analysis. The results of a representative experiment are shown in FIG. 2A for the SLU-1 strain and FIG. 2B for the SLU-2G strain. In FIGS. 2A and 2B, the fungicidal activity is represented for XMP.13 as open circles; for XMP.37 as closed circles; for XMP.97 as open triangles; for XMP.127 as closed triangles; for amphotericin B as open squares; and for nystatin as closed squares. The pmol for a 30 mm^2 zone of inhibition were calculated to be: for XMP.13, 689 pmol against SLU-1 and 129 pmol against SLU-2G; for XMP.37, 231 pmol against SLU-1 and 75 pmol against SLU-2G; for XMP.97, 670 pmol against SLU-1 and 161 pmol against SLU-2G; for XMP.127, 935 pmol against SLU-1 and 116 pmol against SLU-2G; for amphotericin B, 36 pmol against SLU-1 and >541 pmol for SLU-2G; and for nysttin, 98 pmol against SLU-1 and >1,215 pmol against SLU-2G.

For the compound H-SKVKWLIQLFHKK-NH2 [XMP.284], the “C. albicans pmol/30 mm^2 zone” value is listed as 1,460 pmol/30 mm^2 zone in assay [1] and 373 pmol/30 mm^2 zone in assay [1] (listed as XMP.284P′). In addition, the “protection against infection, survival compared with PBS controls” value in the assay with Candida albicans SLU-1 [2] was “provided protection”.
Turning to H-KSKVGWAIQLFHKK-NH2 [XMP.37], in assay [1], the “C. albicans pmol/30 mm^2 zone” value is recorded as 253 pmol/30 mm^2 zone. Besides, the “pmol for a 30 mm^2 zone of inhibition against SLU-1” value (from here on “pmol … of inhibition against SLU-1”) in the assay with Candida albicans SLU-1 [3] came out at 231 pmol.
Consider H-KSKVGWLIQLFHKK-NH2 [XMP.13], for which the “C. albicans pmol/30 mm^2 zone” value in assay [1] was 541 pmol/30 mm^2 zone; in assay [1] (listed as XMP.13P′), 222 pmol/30 mm^2 zone. The “pmol … of inhibition against SLU-1” value in the assay on Candida albicans SLU-1 [3] is 689 pmol.
For the compound `C[C@@H]1[C@H](O)[C@@H](C)/C=C/C=C/C=C/C=C/C=C/C=C/C=C/[C@H](O[C@@H]2O[C@H](C)[C@@H](O)[C@H](N)[C@@H]2O)C[C@@H]2O[C@](O)(C[C@@H](O)C[C@@H](O)[C@H](O)CC[C@@H](O)C[C@@H](O)CC(=O)O[C@H]1C)C[C@H](O)[C@H]2C(=O)O` [Amphotericin B, amphotericin B, reference compound], the “protection against infection, survival compared with PBS controls” value with Candida albicans SLU-1 [2] is given as “protected”. Further, in the assay on Candida albicans SLU-1 [3], the “pmol … of inhibition against SLU-1” value is recorded as 36 pmol.

The values are drawn from patent US6664231B1, “Anti-fungal peptides” (priority 1993, dated 2003).
